From ChEMBL document CHEMBL1781926, “Synthesis of 1-naphtylpiperazine derivatives as serotoninergic ligands and their evaluation as antiproliferative agents” (Eur J Med Chem, 2011) come the findings set out here.

For test [1], the target named is T1, 5-hydroxytryptamine receptor 1A (Rattus norvegicus, UniProt P19327).
T1 sequence (P19327 whole entry): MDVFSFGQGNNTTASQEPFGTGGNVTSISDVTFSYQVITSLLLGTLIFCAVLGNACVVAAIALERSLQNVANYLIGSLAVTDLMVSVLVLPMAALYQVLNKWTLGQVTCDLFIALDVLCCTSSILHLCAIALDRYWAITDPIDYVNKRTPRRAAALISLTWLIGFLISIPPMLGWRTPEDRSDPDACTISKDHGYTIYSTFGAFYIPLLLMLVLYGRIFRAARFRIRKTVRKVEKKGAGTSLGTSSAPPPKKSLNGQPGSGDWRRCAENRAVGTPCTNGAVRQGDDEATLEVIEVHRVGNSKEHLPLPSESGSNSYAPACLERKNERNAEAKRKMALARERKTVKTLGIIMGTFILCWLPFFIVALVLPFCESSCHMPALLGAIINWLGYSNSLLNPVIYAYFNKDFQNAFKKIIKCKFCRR
Nature of the test: Displacement of [3H]8-OH-DPAT from 5HT1A receptor in Sprague-Dawley rat brain cortex homogenates after 30 mins by liquid scintillation counting. Type of test: tissue-based. In general terms: Loss of bound radioactivity is the signal in a displacement assay; it reports binding, not function.

Test [2] addresses T2, Adrenergic receptor alpha-1 (Rattus norvegicus, UniProt P15823+P23944+P43140).
T2 sequence (P15823 whole entry): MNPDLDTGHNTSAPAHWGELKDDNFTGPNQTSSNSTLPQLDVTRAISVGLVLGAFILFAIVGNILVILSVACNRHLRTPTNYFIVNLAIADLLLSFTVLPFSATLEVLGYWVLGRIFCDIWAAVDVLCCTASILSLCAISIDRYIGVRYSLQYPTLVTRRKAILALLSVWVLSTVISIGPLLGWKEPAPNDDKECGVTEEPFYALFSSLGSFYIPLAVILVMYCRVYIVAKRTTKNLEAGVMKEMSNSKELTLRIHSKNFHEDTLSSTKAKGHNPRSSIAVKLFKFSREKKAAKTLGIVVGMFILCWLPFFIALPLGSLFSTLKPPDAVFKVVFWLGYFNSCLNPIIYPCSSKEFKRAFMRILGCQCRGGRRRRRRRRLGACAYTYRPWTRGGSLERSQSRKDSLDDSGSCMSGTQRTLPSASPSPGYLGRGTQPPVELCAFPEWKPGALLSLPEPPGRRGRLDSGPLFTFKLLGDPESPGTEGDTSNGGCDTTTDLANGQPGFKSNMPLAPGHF
T2 sequence (P23944 whole entry): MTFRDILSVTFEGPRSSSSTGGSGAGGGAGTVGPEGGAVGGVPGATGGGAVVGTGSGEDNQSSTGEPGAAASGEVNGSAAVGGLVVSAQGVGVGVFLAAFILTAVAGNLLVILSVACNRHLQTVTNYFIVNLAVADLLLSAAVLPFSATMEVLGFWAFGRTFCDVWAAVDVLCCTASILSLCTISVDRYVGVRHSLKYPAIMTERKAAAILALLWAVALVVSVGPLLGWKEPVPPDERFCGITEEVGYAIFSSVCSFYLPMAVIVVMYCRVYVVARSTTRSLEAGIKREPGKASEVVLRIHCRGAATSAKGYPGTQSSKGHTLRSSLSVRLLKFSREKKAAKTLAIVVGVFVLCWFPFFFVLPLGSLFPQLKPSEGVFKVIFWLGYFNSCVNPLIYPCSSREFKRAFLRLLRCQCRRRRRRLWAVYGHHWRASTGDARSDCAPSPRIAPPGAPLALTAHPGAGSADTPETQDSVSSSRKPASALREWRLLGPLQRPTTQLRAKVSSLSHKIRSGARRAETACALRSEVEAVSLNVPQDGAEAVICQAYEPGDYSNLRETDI
T2 sequence (P43140 whole entry): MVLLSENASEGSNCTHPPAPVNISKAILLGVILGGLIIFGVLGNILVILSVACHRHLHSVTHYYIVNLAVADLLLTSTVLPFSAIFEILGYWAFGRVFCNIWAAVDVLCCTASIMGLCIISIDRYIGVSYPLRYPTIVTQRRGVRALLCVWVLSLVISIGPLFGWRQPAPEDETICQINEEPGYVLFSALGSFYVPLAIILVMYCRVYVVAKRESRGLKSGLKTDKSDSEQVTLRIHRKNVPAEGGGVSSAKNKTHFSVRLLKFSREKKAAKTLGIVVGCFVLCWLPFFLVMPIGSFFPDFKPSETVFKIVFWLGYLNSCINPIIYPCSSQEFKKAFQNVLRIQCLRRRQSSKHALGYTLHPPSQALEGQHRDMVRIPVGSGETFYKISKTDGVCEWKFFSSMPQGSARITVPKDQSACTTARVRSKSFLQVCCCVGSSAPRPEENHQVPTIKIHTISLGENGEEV
Nature of the test: Displacement [3H]prazosin from alpha1 adrenergic receptor in rat brain cortex homogenates after 30 mins by liquid scintillation counting. Type of test: tissue-based.

As to `O=C1C2C3C=CC(C3)C2C(=O)N1OCCN1CCN(c2cccc3ccccc23)CC1` (stereo not drawn), the figures for the inhibitory constant (Ki) in test [1] and in test [2] were 1.58 nM and more than 10000 nM, respectively.

For the molecule `N#C/N=C(\NCCCN1CCN(c2cccc3ccccc23)CC1)c1ccccn1`, the Ki (in general, a measure of affinity in units of concentration, obtained from inhibition or displacement) in test [1] is 5.85 nM; in test [2] it was more than 10000 nM. Taken in the same sequence, the figures for `O=c1c2ccccc2nnn1OCCN1CCN(c2cccc3ccccc23)CC1` were more than 10000 nM and more than 10000 nM. For `O=c1c2ccccc2nnn1OCCCN1CCN(c2cccc3ccccc23)CC1`, in that order: more than 10000 nM and 800 nM.

For `O=c1c2ccccc2nnn1CCCN1CCN(c2cccc3ccccc23)CC1`, the figures for the inhibition constant (Ki) in test [1] and in test [2] were 7.79 nM and 562 nM, respectively.

`O=c1c2ccccc2nnn1CCN1CCN(c2cccc3ccccc23)CC1` showed a Ki in test [2] of 112 nM. `O=C1C2C3C=CC(C3)C2C(=O)N1OCCCN1CCN(c2cccc3ccccc23)CC1` (stereo not drawn): the values for the inhibition constant Ki in test [1] and in test [2] were 0.293 nM and more than 10000 nM, respectively.
